ChEMBL document CHEMBL1148246, “Differential modulation of the antifungal activity of amphotericin B by natural and ent-cholesterol” (2004)
Values joined by “and” are separate entries in the source; they are usually repeats but may differ in a detail not shown here. Equal entries are not always repeated.

Tests used:
Assay type in all cases: functional
[1] = test system: Candida albicans; assay: Residual antifungal activity of amphotericine B was determined against Candida albicans after addition of 60 ppm of cholesterol to the culture
[2] = test system: Candida albicans; assay: Residual antifungal activity of amphotericine B was determined against Candida albicans after addition of 30 ppm of ent-cholesterol to the culture; (Range 14-24 mm)
[3] = test system: Candida albicans; assay: Reduction in antifungal activity of amphotericine B was determined against Candida albicans after addition of 60 ppm of compound to the culture
[4] = test system: Candida albicans; assay: Reduction in antifungal activity of amphotericine B was determined against Candida albicans after addition of 60 ppm of cholesterol to the culture

C[C@@H]1[C@H](O)[C@@H](C)/C=C/C=C/C=C/C=C/C=C/C=C/C=C/[C@H](O[C@@H]2O[C@H](C)[C@@H](O)[C@H](N)[C@@H]2O)C[C@@H]2O[C@](O)(C[C@@H](O)C[C@@H](O)[C@H](O)CC[C@@H](O)C[C@@H](O)CC(=O)O[C@H]1C)C[C@H](O)[C@H]2C(=O)O [AMPHOTERICIN B]
Antifungal activity [1]: 73%
Antifungal activity [2]: 87%
Antifungal activity [3]: 76% and 62%
Antifungal activity [4]: 82%
